A value given as a limit tells only on which side of the number the result lay.

We go through 25 compounds from patent US12552758B2, “Inhibitors of MLH1 and/or PMS2 for cancer treatment” (NeoPhore Limited, priority 2020, dated 2026).

Test [1] deals with recombinant N-terminal MLH1 (residues 15-340) (Homo sapiens (Human), UniProt P40692). The experiment in a line: Fluorescence polarisation assay for MLH1 (protocol for all Examples except Examples 64, 76, 90 and 95). The settings on record: FP probe displacement; 100 nM N-terminal MLH1, 5 nM probe compound, read after 15 minutes; all Examples except 64, 76, 90 and 95. It counts as binding. The method, then: Fluorescence Polarisation Assay for MLH1 (Protocol for all Examples Except Examples 64, 76, 90 and 95)
(§1) Test compounds, as 10 mM DMSO stocks, were dispensed into a Black Fluotrac 200 384 well medium binding plate (Greiner Bio-One, item number 781076) using a Labcyte Echo acoustic liquid handler. For single point screening, test compounds were added to wells in columns 1-22 whilst DMSO was added to wells in columns 23 and 24 in order to normalise the plate. For potency determination, serial dilutions of test compounds were added to wells in columns 3-22 and DMSO volume was normalised across the plate.
20 μL assay buffer was added to all wells in columns 1 and 24 (column 24 only for single point screening) using a MultiDrop Combi (ThermoFisher). Plates were centrifuged for 1 minute at 250×g and were incubated at room temperature for 30 minutes prior to the addition of 20 μL of 2×(10 nM) of 5-((5-(4-((2-(2,4-dihydroxy-5-isopropylbenzoyl)isoindolin-5-yl)methyl)piperazin-1-yl)pentyl)carbamoyl)-2-(6-(dimethylamino)-3-(dimethyliminio)-3H-xanthen-9-yl)benzoate (referred to hereinafter as “probe compound”) in assay buffer (prepared from a 100 μM DMSO stock) with a MultiDrop Combi (ThermoFisher). The final concentration of N-terminal MLH1 was 100 nM and the final concentration of probe compound was 5 nM.
Compound plates were centrifuged for 1 minute at 250×g for 1 minute and were incubated at room temperature for 15 minutes before being read on a PheraStar FSX (fitted with 384-well aperture spoon and 540 590 590 FP optic module). The gain and focus were adjusted before each plate was read so that the polarisation of a no enzyme control (column 24) was equal to 35 mP. Data were normalised against the no inhibitor controls (column 23) and no enzyme controls (column 24).

For test [2], the target named is recombinant N-terminal PMS2 (residues 1-365) (Homo sapiens (Human), UniProt P54278). The experiment in a line: Fluorescence polarisation assay for PMS2. It counts as binding. The following applies: FP probe displacement; 10 nM N-terminal PMS2, 5 nM probe compound, read after 1 hour. Here is the method: Fluorescence Polarisation Assay for PMS2
as §1
20 μL assay buffer was added to all wells in columns 1 and 24 (column 24 only for single point screening) using a MultiDrop Combi (ThermoFisher). Plates were centrifuged for 1 minute at 250×g and were incubated at room temperature for 30 minutes prior to the addition of 20 μL of 2×([…]) of 5-((5-(4-((2-(2,4-dihydroxy-5-isopropylbenzoyl)isoindolin-5-yl)methyl)piperazin-1-yl)pentyl)carbamoyl)-2-(6-(dimethylamino)-3-(dimethyliminio)-3H-xanthen-9-yl)benzoate (referred to hereinafter as “probe compound”) in assay buffer (prepared from a 100 μM DMSO stock) with a MultiDrop Combi (ThermoFisher). The final concentration of N-terminal PMS2 was 10 nM and the final concentration of probe compound was 5 nM.
Compound plates were centrifuged for 1 minute at 250×g for 1 minute and were incubated at room temperature for 1 hour before being read on a PheraStar FSX (fitted with 384-well aperture spoon and 540 590 590 FP optic module). The gain and focus were adjusted before each plate was read so that the polarisation of a no enzyme control (column 24) was equal to 35 mP. Data were normalised against the no inhibitor controls (column 23) and no enzyme controls (column 24).

Sequence of recombinant N-terminal PMS2 (residues 1-365) (P54278 1-365): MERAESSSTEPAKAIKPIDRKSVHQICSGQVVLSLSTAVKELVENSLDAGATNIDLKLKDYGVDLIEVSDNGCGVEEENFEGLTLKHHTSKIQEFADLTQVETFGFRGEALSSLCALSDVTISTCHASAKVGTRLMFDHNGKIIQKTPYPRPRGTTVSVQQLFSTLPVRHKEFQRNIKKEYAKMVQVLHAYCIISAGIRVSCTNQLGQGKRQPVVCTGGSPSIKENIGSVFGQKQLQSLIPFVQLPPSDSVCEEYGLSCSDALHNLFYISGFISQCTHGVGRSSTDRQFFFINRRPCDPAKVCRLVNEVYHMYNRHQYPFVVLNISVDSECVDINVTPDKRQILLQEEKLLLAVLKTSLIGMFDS
Sequence of recombinant N-terminal MLH1 (residues 15-340) (P40692 15-340): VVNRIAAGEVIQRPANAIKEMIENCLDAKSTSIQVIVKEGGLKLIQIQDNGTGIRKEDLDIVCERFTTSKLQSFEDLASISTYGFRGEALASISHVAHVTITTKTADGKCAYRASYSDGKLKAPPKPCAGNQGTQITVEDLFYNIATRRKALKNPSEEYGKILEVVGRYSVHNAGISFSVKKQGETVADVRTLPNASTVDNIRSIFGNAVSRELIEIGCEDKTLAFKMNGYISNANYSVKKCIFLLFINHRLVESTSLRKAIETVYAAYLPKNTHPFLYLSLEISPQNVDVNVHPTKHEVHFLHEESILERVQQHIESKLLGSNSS

With `Cc1c(O)cc(O)c(C(=O)N2Cc3ccccc3C2)c1OCc1ccccc1` [Example 59, (2-(benzyloxy)-4,6-dihydroxy-3-methylphenyl)(isoindolin-2-yl)methanone], the IC50 is more than 10 µM in test [1] and less than 1 µM in test [2].
For the compound `Cc1c(O)cc(O)c(C(=O)N2CCc3ccc(CN(C)C)cc3C2)c1OCc1ccccc1` [Example 60, (2-(benzyloxy)-4,6-dihydroxy-3-methylphenyl)(7-((dimethylamino)methyl)-3,4-dihydroisoquinolin-2(1H)-yl)methanone], the IC50 in test [1] is more than 10 µM; in test [2], less than 1 µM.
For `Cc1c(O)cc(O)c(C(=O)N2CCc3cc(CN(C)C)ccc3C2)c1OCc1ccccc1` [Example 61, (2-(benzyloxy)-4,6-dihydroxy-3-methylphenyl)(6-((dimethylamino)methyl)-3,4-dihydroisoquinolin-2(1H)-yl)methanone] the same measures were more than 10 µM and less than 1 µM.
For `Cc1c(O)cc(O)c(C(=O)N2Cc3ccccc3C[C@H]2CO)c1OCc1ccccc1` [Example 62, (S)-(2-(Benzyloxy)-4,6-dihydroxy-3-methylphenyl)(3-(hydroxymethyl)-3,4-dihydroisoquinolin-2(1H)-yl)methanone] the same measures were more than 10 µM and 1 to 10 µM.
For `Cc1c(O)cc(O)c(C(=O)N2Cc3ccccc3C2CO)c1OCc1ccccc1` (centres unmarked) [Example 63, (2-(benzyloxy)-4,6-dihydroxy-3-methylphenyl)(1-(hydroxymethyl)isoindolin-2-yl)methanone] the same measures were more than 10 µM and 1 to 10 µM.
With `Cc1c(O)cc(O)c(C(=O)N2CCc3ccccc3C2CO)c1OCc1ccccc1` (centres unmarked) [Example 65, (2-(Benzyloxy)-4,6-dihydroxy-3-methylphenyl)(1-(hydroxymethyl)-3,4-dihydroisoquinolin-2(1H)-yl)methanone], the IC50 in test [1] and in test [2] was more than 10 µM each time.
Consider `Cc1c(O)cc(O)c(C(=O)N2Cc3ccccc3C(CO)C2)c1OCc1ccccc1` (centres unmarked) [Example 66, (2-(Benzyloxy)-4,6-dihydroxy-3-methylphenyl)(4-(hydroxymethyl)-3,4-dihydroisoquinolin-2(1H)-yl)methanone], for which the IC50 in test [1] is more than 10 µM; in test [2], 1 to 10 µM.
Regarding `Cc1c(O)cc(O)c(C(=O)N2Cc3ccc(CN(C)C)cc3C2)c1OCc1ccccc1` [Example 68, (2-(Benzyloxy)-4,6-dihydroxy-3-methylphenyl)(5-((dimethylamino)methyl)isoindolin-2-yl)methanone], the values for the IC50 in test [1] and in test [2] were more than 10 µM and less than 1 µM, respectively.
For `Cc1c(O)cc(O)c(C(=O)N2Cc3ccc(CN4CCOCC4)cc3C2)c1OCc1ccccc1` [Example 69, (2-(Benzyloxy)-4,6-dihydroxy-3-methylphenyl)(5-(morpholinomethyl)isoindolin-2-yl)methanone] the same measures were more than 10 µM and less than 1 µM.
For `Cc1c(O)cc(O)c(C(=O)N2CCc3ccccc32)c1OCc1ccccc1` [Example 70, (2-(Benzyloxy)-4,6-dihydroxy-3-methylphenyl)(indolin-1-yl)methanone] the same measures were more than 10 µM and 1 to 10 µM.
In the case of `O=C(c1c(O)cc(O)cc1OCc1ccccc1)N1CCc2ccccc21` [Example 71, (2-(Benzyloxy)-4,6-dihydroxyphenyl)(indolin-1-yl)methanone], the IC50 in test [1] and in test [2] was 1 to 10 µM in each case.
For `Cc1c(O)cc(O)c(C(=O)N2CCCc3ccccc32)c1OCc1ccccc1` [Example 72, (2-(Benzyloxy)-4,6-dihydroxy-3-methylphenyl)(3,4-dihydroquinolin-1(2H)-yl)methanone], the IC50 was more than 10 µM in test [1] and 1 to 10 µM in test [2].
Taken in the same sequence, the figures for `O=C(c1c(O)cc(O)cc1OCc1ccccc1)N1CCCc2ccccc21` [Example 73, (2-(Benzyloxy)-4,6-dihydroxyphenyl)(3,4-dihydroquinolin-1(2H)-yl)methanone] were 1 to 10 µM and 1 to 10 µM.
As for `Cc1c(O)cc(O)c(C(=O)N2Cc3ccncc3C2)c1OCc1ccccc1` [Example 74, (2-(Benzyloxy)-4,6-dihydroxy-3-methylphenyl)(1,3-dihydro-2H-pyrrolo[3,4-c]pyridin-2-yl)methanone], the IC50 was more than 10 µM in test [1] and less than 1 µM in test [2].
Take `Cc1c(O)cc(O)c(C(=O)N2Cc3cccc(CN4CCN(C)CC4)c3C2)c1OCc1ccccc1` [Example 75, (2-(Benzyloxy)-4,6-dihydroxy-3-methylphenyl)(4-((4-methylpiperazin-1-yl)methyl)isoindolin-2-yl)methanone]: the IC50 is more than 10 µM in test [1] and less than 1 µM in test [2].
Taken in the same sequence, the figures for `Cc1c(O)cc(O)c(C(=O)N2CCc3ccc(C(=O)N(C)C)cc3C2)c1OCc1ccccc1` [Example 77, 2-(2-(Benzyloxy)-4,6-dihydroxy-3-methylbenzoyl)-N,N-dimethyl-1,2,3,4-tetrahydroisoquinoline-7-carboxamide] were more than 10 µM and less than 1 µM.
Turning to `Cc1c(O)cc(O)c(C(=O)N2CCc3cc(C(=O)N(C)C)ccc3C2)c1OCc1ccccc1` [Example 78, 2-(2-(benzyloxy)-4,6-dihydroxy-3-methylbenzoyl)-N,N-dimethyl-1,2,3,4-tetrahydroisoquinoline-6-carboxamide], the figures for the 50% inhibitory concentration (IC50) in test [1] and in test [2] were more than 10 µM and less than 1 µM, respectively.
For the compound `Cc1c(O)cc(O)c(C(=O)N2Cc3cccc(NC4CCOC4)c3C2)c1OCc1ccccc1` (centres unmarked) [Example 79, (2-(Benzyloxy)-4,6-dihydroxy-3-methylphenyl)(4-((tetrahydrofuran-3-yl)amino)isoindolin-2-yl)methanone], the IC50 in test [1] is more than 10 µM; in test [2], less than 1 µM.
Taken in the same sequence, the figures for `Cc1c(O)cc(O)c(C(=O)N2Cc3cccc(NC4COC4)c3C2)c1OCc1ccccc1` [Example 80, (2-(Benzyloxy)-4,6-dihydroxy-3-methylphenyl)(4-(oxetan-3-ylamino)isoindolin-2-yl)methanone] were 1 to 10 µM and less than 1 µM.
On to `Cc1c(O)cc(O)c(C(=O)N2Cc3cccc(N4CCCC(O)C4)c3C2)c1OCc1ccccc1` (centres unmarked) [Example 81, (2-(Benzyloxy)-4,6-dihydroxy-3-methylphenyl)(4-(3-hydroxypiperidin-1-yl)isoindolin-2-yl)methanone], for which the IC50 in test [1] is more than 10 µM; in test [2], less than 1 µM.
Take `Cc1c(O)cc(O)c(C(=O)N2Cc3cccc(C#N)c3C2)c1OCc1ccccc1` [Example 82, 2-(2-(benzyloxy)-4,6-dihydroxy-3-methylbenzoyl)isoindoline-4-carbonitrile]: the half-inhibitory concentration (IC50) in test [1] was more than 10 µM; in test [2] it was less than 1 µM.
Take `Cc1c(O)cc(O)c(C(=O)N2Cc3ccc(C(=O)N(C)C)cc3C2)c1OCc1ccccc1` [Example 83, 2-(2-(Benzyloxy)-4,6-dihydroxy-3-methylbenzoyl)-N,N-dimethylisoindoline-5-carboxamide]: the IC50 in test [1] was more than 10 µM; in test [2] it was less than 1 µM.
As for `CNC(=O)c1ccc2c(c1)CN(C(=O)c1c(O)cc(O)c(C)c1OCc1ccccc1)C2` [Example 84, 2-(2-(Benzyloxy)-4,6-dihydroxy-3-methylbenzoyl)-N-methylisoindoline-5-carboxamide], the IC50 is more than 10 µM in test [1] and less than 1 µM in test [2].
Taken in the same sequence, the figures for `Cc1c(O)cc(O)c(C(=O)N2Cc3cccc(C(=O)N(C)C)c3C2)c1OCc1ccccc1` [Example 85, 2-(2-(Benzyloxy)-4,6-dihydroxy-3-methylbenzoyl)-N,N-dimethylisoindoline-4-carboxamide] were more than 10 µM and less than 1 µM.
For `CNC(=O)c1cccc2c1CN(C(=O)c1c(O)cc(O)c(C)c1OCc1ccccc1)C2` [Example 86, 2-(2-(benzyloxy)-4,6-dihydroxy-3-methylbenzoyl)-N-methylisoindoline-4-carboxamide] the same measures were more than 10 µM and 1 to 10 µM.
